Residues, ends and D or L forms follow the SMILES beside them.
Legend:
NLRP1 LRR = target: T1, NLRP1 LRR (Homo sapiens, UniProt Q9C000); test: SPR assay, NLRP1 LRR binding to surface-tethered PG derivatives; details: for Decrease in affinity compared to intact MDP (1): NLRP1 LRR, SPR surface KD; for Binding to non-PG derived compound tethered to SPR surface: NLRP1, specificity control (Figure S8)
T1 sequence (Q9C000 791-990): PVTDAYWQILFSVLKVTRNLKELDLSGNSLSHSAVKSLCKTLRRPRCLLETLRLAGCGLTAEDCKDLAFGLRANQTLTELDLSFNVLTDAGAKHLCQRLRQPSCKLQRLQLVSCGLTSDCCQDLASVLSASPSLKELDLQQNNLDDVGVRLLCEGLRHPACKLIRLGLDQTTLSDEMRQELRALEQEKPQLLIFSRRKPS

NOD2 LRR [1] = target: T2, NOD2 LRR (Homo sapiens, UniProt Q9HC29); details: read-out: Surface KD, NOD2, SPR, previously reported surface KD; cited from earlier work
T2 sequence (Q9HC29 765-1040 limits assumed): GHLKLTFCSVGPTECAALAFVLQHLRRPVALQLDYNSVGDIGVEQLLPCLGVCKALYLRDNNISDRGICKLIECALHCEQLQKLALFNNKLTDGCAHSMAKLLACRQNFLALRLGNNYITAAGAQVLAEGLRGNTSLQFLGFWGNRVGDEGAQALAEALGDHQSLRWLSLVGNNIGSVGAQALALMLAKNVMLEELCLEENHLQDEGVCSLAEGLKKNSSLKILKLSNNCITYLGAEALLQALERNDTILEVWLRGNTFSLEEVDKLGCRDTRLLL

[2] = system: NOD2 R877 to alanine mutant; details: R877A versus wild-type NOD2; cited from earlier work
NOD2 LRR [3] = target: T2, NOD2 LRR; test: SPR assay, NOD2 LRR binding to surface-tethered PG derivatives; details: specificity control (Figure S8)

Compound: C[C@H](N)C(=O)N[C@H](CCC(=O)O)C(N)=O [Compound 3, L-ala D-iso dipeptide] (HELM PEPTIDE1{A.[dE].[am]}$$$$V2.0)
- Decrease in affinity compared to intact MDP (1) (NLRP1 LRR): 2 fold
- Kd (NOD2 LRR [1]): 0.428 ± 0.049 µM

Compound: CC(=O)N[C@H]1C(O)O[C@H](CO)[C@@H](O)[C@@H]1O[C@H](C)C(=O)N[C@@H](C)C(=O)N[C@H](CCC(=O)O)C(N)=O (mixture of isomers) [MDP, muramyl dipeptide]
- Decrease in affinity of NOD2 for MDP on mutation of R877 to alanine [2]: 4 fold

Compound: 1-amino MDP [Compound 6]
- Kd (NOD2 LRR [1]): 0.7 ± 0.1 µM

Compound: C[C@H](N)C(=O)N[C@@H](C)C(=O)N[C@@H](C)C(=O)O [L-alanine tripeptide, reference compound]
- Binding to non-PG derived compound tethered to SPR surface (NLRP1 LRR): did not exhibit binding
- Binding to non-PG derived compound tethered to SPR surface (NOD2 LRR [3]): did not exhibit binding

Compound: 6-amino MDP [Compound 1]
- Kd (NOD2 LRR [1]): 0.213 ± 0.024 µM

Compound: 6 -amino GlcNAc [Compound 2]
- Decrease in affinity compared to intact MDP (1) (NLRP1 LRR): 2 fold
- Kd (NOD2 LRR [1]): 0.354 ± 0.04 µM

Compound: N[C@H]1C(O)O[C@H](CO)[C@H](O)[C@@H]1O (some centres unmarked) [galactosamine, reference compound]
- Binding to non-PG derived compound tethered to SPR surface (NLRP1 LRR): did not exhibit binding
- Binding to non-PG derived compound tethered to SPR surface (NOD2 LRR [3]): did not exhibit binding
